Source: patent US20130137682A1, “PEST CONTROL COMPOSITION” (SUMITOMO CHEMICAL COMPANY, LIMITED, priority 2010, published 2013)

System: Haemaphysalis longicornis
Experiment: Test Example 3: insecticidal test on Haemaphysalis longicornis by treating glass surface
Type: in vivo
Settings: 48 h, read-out: Mortality Rate (%)
Method: Insecticidal Test on Haemaphysalis longicornis by Treating Glass Surface
Acetone solutions were each prepared for the present hydrazide compounds and the present neonicotinoid compounds. To inner walls of a glass screw tube and lid (NO. 5, manufactured by Maruemu Corporation), 0.2 mL of the acetone solution was uniformly applied. […] The lid is closed tightly, and the number of dead ticks is examined after 2 days.

Work on `CCN(Cc1ccc(Cl)nc1)/C(=C/[N+](=O)[O-])NC` [Nitenpyram, nitenpyram] yielded a mortality at 500 mg/m2 of 20%.
